Source: the NIST ThermoML archive (doi:10.1016/j.jct.2011.05.003)
Numbers after ± are expanded uncertainties.

Settings: 101.33 kPa, Liquid; for speed of sound: Sing-around technique in a fixed-path interferometer; for mass density: Vibrating tube method

| speed of sound (293.15 K) [m/s] | mass density (293.15 K) [kg/m3] | speed of sound (298.15 K) [m/s] | mass density (298.15 K) [kg/m3] | speed of sound (303.15 K) [m/s] | mass density (303.15 K) [kg/m3] | SMILES |
| --- | --- | --- | --- | --- | --- | --- |
| 1281.9 ± 1.2 | 815.433 ± 0.24 | 1262.5 ± 1.2 | 811.139 ± 0.24 | 1244.1 ± 1.2 | 806.827 ± 0.24 | CCCCCC(C)=O [2-heptanone] |
| 1261.2 ± 0.83 | 759.529 ± 0.16 | 1241.4 ± 0.82 | 755.577 ± 0.16 | 1222.2 ± 0.82 | 751.407 ± 0.16 | CCCCNCCCC [dibutylamine] |
| 1209.4 ± 1.2 | 738.259 ± 0.25 | 1188 ± 1.2 | 733.81 ± 0.25 | 1167.6 ± 1.2 | – | CCCNCCC [dipropylamine] |
| 1132.5 ± 0.8 | 727.333 ± 0.17 | 1110.9 ± 0.8 | 722.729 ± 0.17 | 1090.7 ± 0.78 | 718.092 ± 0.17 | CCN(CC)CC [triethylamine] |
